Each block holds one compound with its values, some of them ahead of it. The source made the active and inactive calls. No cut-off for these calls is given here.
Columns and labels:
[1] = molecular target: Sodium-dependent serotonin transporter (Homo sapiens) (UniProt P31645); test: Activity against 5HTTRANS/H in the Eurofins SafetyScreen44 (BI) by Radioactive Assay (Old_Cerep_4); conditions: Compound concentration 10.0 uM
[2] = molecular target: Peroxisome proliferator-activated receptor gamma (Homo sapiens) (UniProt P37231); test: Agonist activity in the Eurofins SafetyScreen44 (BI) against PPARG/H AG by Radioactive Assay (Old_Cerep_35); conditions: Compound concentration 10.0 uM
Homo sapiens = organism: Homo sapiens; test: sigma (non-selective) Eurofins-Cerep binding assay; format: protein assay; conditions: Compound concentration 10.0 uM
[3] = molecular target: Bombesin receptor (Rattus norvegicus) (UniProt P52500+P24053+Q8K418); test: Activity against BOMBESIN/NS in the Eurofins SafetyScreen44 (BI) by Radioactive Assay (Old_Cerep_9); format: protein assay
[4] = molecular target: GABA-A receptor; anion channel (Rattus norvegicus) (UniProt O09028+P15431+P18506+P18508+P19969+P20236+P23574+P23576+P28471+P28473+P30191+P62813+P63079+P63138+Q91ZM7+Q9ES14); test: Inhibitor of GABA/NS/R in the Eurofins SafetyScreen44 (BI) by Radioactive Assay (Cerep_60); format: protein-complex assay; conditions: Compound concentration 10.0 uM
[5] = molecular target: Nociceptin receptor (Homo sapiens) (UniProt P41146); test: Activity against ORL1/H in the Eurofins SafetyScreen44 (BI) by Radioactive Assay (Old_Cerep_28); conditions: Compound concentration 10.0 uM
[6] = molecular target: Pituitary adenylate cyclase-activating polypeptide type I receptor (Homo sapiens) (UniProt P41586); test: Activity against PACAP/HU in the Eurofins SafetyScreen44 (BI) by Radioactive Assay (Old_Cerep_31); conditions: Compound concentration 10.0 uM
[7] = molecular target: P2X purinoceptor (Oryctolagus cuniculus) (UniProt G1U3D6); test: Activity against P2X/R in the Eurofins SafetyScreen44 (BI) by Others (Old_Cerep_29); conditions: Rattus norvegicus; Compound concentration 10.0 uM
[8] = molecular target: Elastase, neutrophil expressed (Cricetulus griseus, UniProt A0A3L7HHY4); test: ELANE inhibitor assay (hamster)
[9] = molecular target: Neuropeptide Y receptor type 1 (Homo sapiens) (UniProt P25929); test: Y1 Eurofins-Cerep binding assay; design: ligand concentration 0.025 nM; conditions: Compound concentration 10.0 uM
[10] = molecular target: Platelet-derived growth factor receptor (Mus musculus) (UniProt P05622+P26618); test: Activity against PDGF/M in the Eurofins SafetyScreen44 (BI) (Old_Cerep_33); format: protein-complex assay; conditions: Compound concentration 10.0 uM
[11] = molecular target: 5-hydroxytryptamine receptor 7 (Homo sapiens) (UniProt P34969); test: 5-HT7 Eurofins-Cerep binding assay; design: ligand concentration 4 nM; conditions: Compound concentration 10.0 uM
[12] = molecular target: D(3) dopamine receptor (Homo sapiens) (UniProt P35462); test: D3 Eurofins-Cerep binding assay; conditions: Compound concentration 10.0 uM
[13] = molecular target: Endothelin receptor type B (Homo sapiens) (UniProt P24530); test: Activity against ETB/H in the Eurofins SafetyScreen44 (BI) by Radioactive Assay (Old_Cerep_20); conditions: Compound concentration 10.0 uM
[14] = molecular target: Type-2 angiotensin II receptor (Homo sapiens) (UniProt P50052); test: Activity against AT2/H in the Eurofins SafetyScreen44 (BI) by Radioactive Assay (Old_Cerep_7)
[15] = molecular target: Cannabinoid receptor 1 (Homo sapiens) (UniProt P21554); test: Activity against CB1/CENTR/H in the Eurofins SafetyScreen44 (BI) by Radioactive Assay (Old_Cerep_12)
[16] = molecular target: Prostaglandin E2 receptor EP4 subtype (Homo sapiens) (UniProt P35408); test: Agonist activity in the Eurofins SafetyScreen44 (BI) against EP4/H AG by Radioactive Assay (Old_Cerep_19); conditions: Compound concentration 10.0 uM
[17] = molecular target: Kappa-type opioid receptor (Rattus norvegicus) (UniProt P34975); test: Inhibitor of KAPPA/R in the Eurofins SafetyScreen44 (BI) by Radioactive Assay (Old_Cerep_24); conditions: Compound concentration 10.0 uM
[18] = molecular target: Glutamate NMDA receptor (Rattus norvegicus) (UniProt P35439+Q00959+Q00960+Q00961+Q62645+Q8VHN2+Q9R1M7); test: PCP Eurofins-Cerep binding assay; format: protein-complex assay; conditions: Compound concentration 10.0 uM
[19] = molecular target: Calcitonin-gene-related peptide receptor, CALCRL/RAMP1 (Homo sapiens) (UniProt O60894+Q16602); test: Agonist activity in the Eurofins SafetyScreen44 (BI) against CGRP/H by Scintillation counting (Old_Cerep_15); format: protein-complex assay
[20] = molecular target: Prostaglandin E2 receptor EP2 subtype (Homo sapiens) (UniProt P43116); test: Agonist activity in the Eurofins SafetyScreen44 (BI) against EP2(H) by Scintillation counting (Old_Cerep_18); conditions: Compound concentration 10.0 uM
[21] = molecular target: 5-hydroxytryptamine receptor 5A (Homo sapiens) (UniProt P47898); test: Activity against 5HT5A/H in the Eurofins SafetyScreen44 (BI) by Radioactive Assay (Old_Cerep_2); conditions: Compound concentration 10.0 uM
[22] = molecular target: D(4) dopamine receptor (Homo sapiens) (UniProt P21917); test: D4.4 Eurofins-Cerep binding assay; conditions: Compound concentration 10.0 uM
[23] = molecular target: Sodium-dependent serotonin transporter (Homo sapiens) (UniProt P31645); test: 5-HT transporter Eurofins-Cerep binding assay; design: ligand concentration 2 nM; conditions: Compound concentration 10.0 uM
[24] = molecular target: Androgen receptor (Homo sapiens) (UniProt P10275); conditions: Compound concentration 10.0 uM
Description: Activity against ANDROGEN/H in the Eurofins Cerep SafetyScreen44 (BI) by Radioactive Assay (Cerep_933)

[25] = molecular target: Prostaglandin G/H synthase 1 (Homo sapiens) (UniProt P23219); test: Inhibitor of COX-1 in the Eurofins Cerep SafetyScreen44 (BI) by Fluorimetry (Cerep_4173); conditions: Compound concentration 10.0 uM
[26] = molecular target: cGMP-inhibited 3',5'-cyclic phosphodiesterase 3A (Homo sapiens) (UniProt Q14432); test: Inhibitor of PDE3A in the Eurofins Cerep SafetyScreen44 (BI) by HTRF-homogeneous time resolved fluoresce (Cerep_4072); conditions: Compound concentration 10.0 uM
[27] = molecular target: Angiotensin-converting enzyme (Homo sapiens) (UniProt P12821); test: Activity against ACE(HU_AMTCH400) in the Eurofins Cerep SafetyScreen44 (BI) by Photometry (Cerep_3441); conditions: Compound concentration 10.0 uM
[28] = molecular target: L-type calcium channel (Cav1.2, alpha-1C), dihydropyridine site (Rattus norvegicus, UniProt P22002); test: Inhibitor of CA+/DHPSI/R in the Eurofins Cerep SafetyScreen44 (BI) by Radioactive Assay (Cerep_161); format: protein assay; design: scale not given: the % may be the effect or the level left; conditions: rat brain, probe [3H](+)PN200-110, compound concentration 10 uM, read-out: % Ctrl
[29] = molecular target: Alpha-2A adrenergic receptor (Homo sapiens) (UniProt P08913); test: Inhibitor of ALPHA2A/HU in the Eurofins Cerep SafetyScreen44 (BI) by Radioactive Assay (Cerep_13); conditions: Compound concentration 10.0 uM
[30] = molecular target: Alpha-1A adrenergic receptor (Homo sapiens) (UniProt P35348); test: Agonist activity in the Eurofins Cerep SafetyScreen44 (BI) against ALPHA1AH_ANTAG by Scintillation counting (Cerep_2338); conditions: Compound concentration 10.0 uM
[31] = molecular target: MAO-A (amine oxidase [flavin-containing] A) (Homo sapiens, UniProt P21397); test: Agonist activity in the Eurofins Cerep SafetyScreen44 (BI) against MAO-A_ANTAG by Scintillation counting (Cerep_443); design: scale not given: the % may be the effect or the level left; conditions: rat; compound concentration 10 uM; target entry is the homologue from another species; read-out: % Ctrl
Sequence of MAO-A (amine oxidase [flavin-containing] A) (P21397 whole entry): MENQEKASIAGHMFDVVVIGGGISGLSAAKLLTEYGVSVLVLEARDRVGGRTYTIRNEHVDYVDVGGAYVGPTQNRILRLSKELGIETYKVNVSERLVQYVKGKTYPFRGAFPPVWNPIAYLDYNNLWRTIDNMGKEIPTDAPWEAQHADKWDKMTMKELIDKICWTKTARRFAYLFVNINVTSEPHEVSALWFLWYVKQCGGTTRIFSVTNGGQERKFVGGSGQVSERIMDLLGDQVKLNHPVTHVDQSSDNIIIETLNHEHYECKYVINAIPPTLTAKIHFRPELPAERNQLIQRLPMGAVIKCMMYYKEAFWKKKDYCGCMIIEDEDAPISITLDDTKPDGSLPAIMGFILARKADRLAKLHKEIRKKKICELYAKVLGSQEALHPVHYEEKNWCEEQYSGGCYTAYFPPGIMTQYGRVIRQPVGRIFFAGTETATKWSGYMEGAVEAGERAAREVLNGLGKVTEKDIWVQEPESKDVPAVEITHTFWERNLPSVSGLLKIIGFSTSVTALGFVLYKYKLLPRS

Sequence of Cannabinoid receptor 1 (Homo sapiens) (P21554 whole entry): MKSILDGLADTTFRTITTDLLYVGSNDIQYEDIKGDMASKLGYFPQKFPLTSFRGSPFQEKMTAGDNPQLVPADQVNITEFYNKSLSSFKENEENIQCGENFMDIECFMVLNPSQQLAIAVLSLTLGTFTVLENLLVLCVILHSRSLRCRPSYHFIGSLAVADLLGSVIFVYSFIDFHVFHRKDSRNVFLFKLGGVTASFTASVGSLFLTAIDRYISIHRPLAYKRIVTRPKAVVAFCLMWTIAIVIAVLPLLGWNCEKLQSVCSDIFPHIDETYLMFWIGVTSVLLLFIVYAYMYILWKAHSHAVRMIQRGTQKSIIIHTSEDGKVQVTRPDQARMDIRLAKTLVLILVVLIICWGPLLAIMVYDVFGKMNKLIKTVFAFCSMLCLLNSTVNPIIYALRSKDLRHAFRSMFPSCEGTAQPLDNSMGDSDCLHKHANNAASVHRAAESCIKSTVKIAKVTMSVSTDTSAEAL
Sequence of Bombesin receptor (Rattus norvegicus) (P24053 whole entry, looked up): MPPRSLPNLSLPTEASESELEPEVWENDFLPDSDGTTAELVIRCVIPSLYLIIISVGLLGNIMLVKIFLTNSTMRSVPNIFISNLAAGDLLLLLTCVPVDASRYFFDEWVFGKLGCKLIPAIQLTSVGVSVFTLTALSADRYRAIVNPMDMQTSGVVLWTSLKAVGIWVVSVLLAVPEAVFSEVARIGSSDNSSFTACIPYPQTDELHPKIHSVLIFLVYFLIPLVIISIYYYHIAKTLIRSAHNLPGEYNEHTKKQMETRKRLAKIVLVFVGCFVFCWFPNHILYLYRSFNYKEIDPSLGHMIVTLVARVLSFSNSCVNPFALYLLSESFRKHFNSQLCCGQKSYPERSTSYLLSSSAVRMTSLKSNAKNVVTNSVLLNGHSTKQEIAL
Sequence of Bombesin receptor (Rattus norvegicus) (P52500 whole entry, looked up): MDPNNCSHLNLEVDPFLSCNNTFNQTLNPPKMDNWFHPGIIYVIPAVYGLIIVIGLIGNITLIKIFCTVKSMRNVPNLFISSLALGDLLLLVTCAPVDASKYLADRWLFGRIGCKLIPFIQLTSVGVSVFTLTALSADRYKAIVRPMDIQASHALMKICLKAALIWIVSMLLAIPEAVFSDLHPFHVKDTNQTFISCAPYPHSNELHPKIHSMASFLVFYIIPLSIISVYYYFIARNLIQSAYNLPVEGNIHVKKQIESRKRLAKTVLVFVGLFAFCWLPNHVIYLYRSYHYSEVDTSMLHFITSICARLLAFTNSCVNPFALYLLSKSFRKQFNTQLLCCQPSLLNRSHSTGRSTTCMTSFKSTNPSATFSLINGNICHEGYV
Sequence of Bombesin receptor (Rattus norvegicus) (Q8K418 whole entry, looked up): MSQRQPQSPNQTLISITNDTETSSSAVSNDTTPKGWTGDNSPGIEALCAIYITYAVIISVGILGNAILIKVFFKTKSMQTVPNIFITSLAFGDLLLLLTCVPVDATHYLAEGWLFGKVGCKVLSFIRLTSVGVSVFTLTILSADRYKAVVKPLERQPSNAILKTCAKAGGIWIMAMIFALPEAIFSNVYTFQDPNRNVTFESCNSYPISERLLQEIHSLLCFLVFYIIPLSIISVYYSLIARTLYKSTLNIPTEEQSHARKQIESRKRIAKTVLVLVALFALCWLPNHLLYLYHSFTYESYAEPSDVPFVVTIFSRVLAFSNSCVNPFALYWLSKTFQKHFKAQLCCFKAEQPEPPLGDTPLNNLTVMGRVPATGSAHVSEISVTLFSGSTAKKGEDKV
Sequence of Type-2 angiotensin II receptor (Homo sapiens) (P50052 whole entry): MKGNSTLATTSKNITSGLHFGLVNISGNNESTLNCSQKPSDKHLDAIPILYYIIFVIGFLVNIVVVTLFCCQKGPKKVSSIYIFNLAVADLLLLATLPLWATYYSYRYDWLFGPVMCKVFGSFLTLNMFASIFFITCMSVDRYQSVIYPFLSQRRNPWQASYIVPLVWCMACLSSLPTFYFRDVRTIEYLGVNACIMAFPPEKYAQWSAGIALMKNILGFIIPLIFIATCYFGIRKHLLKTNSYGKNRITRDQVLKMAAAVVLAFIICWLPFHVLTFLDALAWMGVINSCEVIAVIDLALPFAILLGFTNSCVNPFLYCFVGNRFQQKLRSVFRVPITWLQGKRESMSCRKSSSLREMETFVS
Sequence of Sodium-dependent serotonin transporter (Homo sapiens) (P31645 whole entry, looked up): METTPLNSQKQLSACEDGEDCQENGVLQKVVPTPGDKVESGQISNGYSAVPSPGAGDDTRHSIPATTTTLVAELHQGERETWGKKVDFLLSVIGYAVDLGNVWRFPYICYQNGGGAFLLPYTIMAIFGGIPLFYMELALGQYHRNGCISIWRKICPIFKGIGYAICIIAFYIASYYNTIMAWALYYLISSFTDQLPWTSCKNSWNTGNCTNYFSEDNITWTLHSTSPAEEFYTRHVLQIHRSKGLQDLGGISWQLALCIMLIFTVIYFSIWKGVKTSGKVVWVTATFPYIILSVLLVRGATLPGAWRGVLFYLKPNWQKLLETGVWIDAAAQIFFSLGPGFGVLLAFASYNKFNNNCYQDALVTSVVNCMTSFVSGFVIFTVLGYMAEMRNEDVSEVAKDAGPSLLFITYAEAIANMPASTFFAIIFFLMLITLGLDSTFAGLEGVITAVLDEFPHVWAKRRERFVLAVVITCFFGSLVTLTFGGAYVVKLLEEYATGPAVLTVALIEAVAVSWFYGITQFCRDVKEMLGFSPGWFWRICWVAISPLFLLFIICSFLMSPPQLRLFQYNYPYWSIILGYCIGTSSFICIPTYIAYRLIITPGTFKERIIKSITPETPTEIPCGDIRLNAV
Sequence of Neuropeptide Y receptor type 1 (Homo sapiens) (P25929 whole entry): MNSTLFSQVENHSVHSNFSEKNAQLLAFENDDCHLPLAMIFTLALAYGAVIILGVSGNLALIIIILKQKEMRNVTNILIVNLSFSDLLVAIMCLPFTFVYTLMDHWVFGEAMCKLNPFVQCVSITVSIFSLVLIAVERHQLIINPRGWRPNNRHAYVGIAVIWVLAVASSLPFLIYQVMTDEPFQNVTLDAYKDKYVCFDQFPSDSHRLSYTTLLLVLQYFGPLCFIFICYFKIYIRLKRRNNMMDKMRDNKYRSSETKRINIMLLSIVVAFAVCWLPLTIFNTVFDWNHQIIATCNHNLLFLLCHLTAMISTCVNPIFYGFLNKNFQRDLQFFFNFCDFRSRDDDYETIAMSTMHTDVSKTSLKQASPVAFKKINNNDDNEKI
Sequence of D(4) dopamine receptor (Homo sapiens) (P21917 whole entry): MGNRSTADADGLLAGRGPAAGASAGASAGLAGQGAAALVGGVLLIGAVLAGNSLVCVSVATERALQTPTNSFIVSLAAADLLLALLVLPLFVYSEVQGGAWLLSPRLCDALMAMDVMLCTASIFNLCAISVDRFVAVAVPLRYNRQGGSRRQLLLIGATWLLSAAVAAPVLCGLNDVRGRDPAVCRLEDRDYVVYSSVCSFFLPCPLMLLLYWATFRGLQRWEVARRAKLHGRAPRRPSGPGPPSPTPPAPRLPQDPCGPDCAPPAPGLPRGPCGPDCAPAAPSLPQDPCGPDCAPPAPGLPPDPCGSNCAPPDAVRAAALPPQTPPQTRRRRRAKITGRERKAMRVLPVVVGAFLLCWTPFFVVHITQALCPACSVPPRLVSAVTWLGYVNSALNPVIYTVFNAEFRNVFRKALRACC
Sequence of Alpha-2A adrenergic receptor (Homo sapiens) (P08913 whole entry): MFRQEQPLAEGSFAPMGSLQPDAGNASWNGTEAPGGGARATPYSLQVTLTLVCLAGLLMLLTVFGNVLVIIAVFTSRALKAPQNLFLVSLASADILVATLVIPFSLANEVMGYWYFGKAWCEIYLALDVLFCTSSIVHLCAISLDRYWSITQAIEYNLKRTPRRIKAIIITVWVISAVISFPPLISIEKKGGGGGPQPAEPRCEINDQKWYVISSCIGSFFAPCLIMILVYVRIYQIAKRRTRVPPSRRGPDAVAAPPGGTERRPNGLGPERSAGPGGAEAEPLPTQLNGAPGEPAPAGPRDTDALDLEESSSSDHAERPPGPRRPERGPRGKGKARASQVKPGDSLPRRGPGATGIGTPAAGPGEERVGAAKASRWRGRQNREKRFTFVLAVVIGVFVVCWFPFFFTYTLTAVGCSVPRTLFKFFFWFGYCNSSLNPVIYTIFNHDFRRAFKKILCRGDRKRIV
Sequence of 5-hydroxytryptamine receptor 5A (Homo sapiens) (P47898 whole entry): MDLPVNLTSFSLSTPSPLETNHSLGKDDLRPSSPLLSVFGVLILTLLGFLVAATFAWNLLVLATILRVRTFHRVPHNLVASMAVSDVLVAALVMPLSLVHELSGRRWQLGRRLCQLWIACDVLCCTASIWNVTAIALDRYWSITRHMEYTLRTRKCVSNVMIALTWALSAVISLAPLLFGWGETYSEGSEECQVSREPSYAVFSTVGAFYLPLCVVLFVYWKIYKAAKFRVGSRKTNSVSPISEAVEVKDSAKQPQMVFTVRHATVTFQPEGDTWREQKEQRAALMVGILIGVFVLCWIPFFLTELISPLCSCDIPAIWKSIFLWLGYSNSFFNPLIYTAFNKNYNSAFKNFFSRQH

residual activity (Homo sapiens): 72%
IC50 [8]: 4 nM (active)
residual activity [9]: 107%
residual activity [11]: 102%
residual activity [12]: 96%
residual activity [18]: 104%
residual activity [22]: 98%
SMILES: CC(C)(O)CNC(=O)N1C(=O)N(c2cccc(C(F)(F)F)c2)C2=C(C(=O)CC2)[C@H]1c1ccc(C#N)cc1
residual activity [1]: 108%
residual activity [2]: 111%
residual activity ([3]; Compound concentration 10.0 uM): 129%
residual activity ([3]; Compound concentration 30.0 uM): 118%
residual activity [4]: 103%
residual activity [5]: 95%
residual activity [6]: 122%
residual activity [7]: 103%
residual activity [10]: 103%
residual activity [13]: 92%
residual activity ([14]; Compound concentration 10.0 uM): 92%
residual activity ([14]; Compound concentration 30.0 uM): 114%
residual activity ([15]; Compound concentration 10.0 uM): 87%
residual activity ([15]; Compound concentration 30.0 uM): 93%
residual activity [16]: 77%
residual activity [17]: 65%
residual activity ([19]; Compound concentration 10.0 uM): 108%
residual activity ([19]; Compound concentration 30.0 uM): 113%
residual activity [20]: 93%
residual activity [21]: 98%

residual activity [23]: 105%
residual activity [24]: 101%
SMILES: CC(C)(O)CNC(=O)N1C(=O)N(c2cccc(C(F)(F)F)c2)C2=C(C(=O)CC2)[C@@H]1c1ccc(C#N)cc1
residual activity [25]: 105%
residual activity [26]: 97%
residual activity [27]: 98%
activity at 10 µM [28]: 104% (not active)
residual activity [29]: 98%
residual activity [30]: 102%
activity at 10 µM [31]: 101% (not active)
